In ChEMBL document CHEMBL3046585, “Antifungal activity of a novel quercetin derivative bearing a trifluoromethyl group on Candida albicans” (Med Chem Res, 2012) one finds Activity and logP data, which are given here for 2 molecules.

A word on the logP: it is the decadic logarithm of the partition coefficient of the neutral form, usually between octanol and water. Lower therefore signals lower lipophilicity.

Active and inactive are the calls of the source. No cut-off for these calls is given here.

Data set [1] concerns Candida albicans. Briefly: Antifungal activity against Candida albicans PC31 at 0.06 mg/ml after 48 hr. Format: functional, organism-based.
The test system of data set [2] is Candida albicans. The data set is described as follows: Antifungal activity against Candida albicans PC31 at 0.15 mg/ml after 48 hr. Format: functional, organism-based.
Data set [3] deals with Candida albicans. Briefly: Antifungal activity against Candida albicans PC31 at 0.30 mg/ml after 48 hr. Format: functional, organism-based.
Data set [4] has as its system Candida albicans. The data set is described as follows: Antifungal activity against Candida albicans PC31 at 0.40 mg/ml after 48 hr. Format: functional, organism-based.
The subject of data set [5] is Candida albicans. Briefly: Antifungal activity against Candida albicans PC31 at 0.50 mg/ml after 48 hr. Format: functional, organism-based.
For data set [6], the system named is Candida albicans. Briefly: Antifungal activity against Candida albicans PC31 at 0.60 mg/ml after 48 hr. Format: functional, organism-based.
The test system of data set [7] is Candida albicans. The data set is described as follows: Antifungal activity against Candida albicans PC31 at 1.25 mg/ml after 48 hr. Format: functional, organism-based.
The test system of data set [8] is Candida albicans. The data set is described as follows: Antifungal activity against Candida albicans PC31 at 1.30 mg/ml after 48 hr. Format: functional, organism-based.
Data set [9] relates to Candida albicans. Briefly: Antifungal activity against Candida albicans PC31 at 1.60 mg/ml after 48 hr. Format: functional, organism-based.
Data set [10] relates to Candida albicans. The data set is described as follows: Antifungal activity against Candida albicans PC31 at 1.90 mg/ml after 48 hr. Format: functional, organism-based.
Data set [11] deals with Candida albicans. The data set is described as follows: Antifungal activity against Candida albicans PC31 at 2.10 mg/ml after 48 hr. Format: functional, organism-based.
Data set [12] has as its system Candida albicans. The data set is described as follows: Antifungal activity against Candida albicans PC31 at 2.50 mg/ml after 48 hr. Format: functional, organism-based.
In data set [13] the test system is Candida albicans. Briefly: Antifungal activity against Candida albicans PC31 at 2.20 mg/ml after 48 hr. Format: functional, organism-based.
Data set [14] can be described thus: 1-octanol-water partition coefficient, log P of the compound. Format: physicochemical.

Regarding `O=c1c(O)c(-c2ccc(O)c(Oc3c([N+](=O)[O-])cc(C(F)(F)F)cc3[N+](=O)[O-])c2)oc2cc(O)cc(O)c12`, the outcome in the data set with Candida albicans [1], with Candida albicans [2], in the data set with Candida albicans [3], in the data set with Candida albicans [4] and in the data set with Candida albicans [5] was inactive. Further, the outcome in the data set on Candida albicans [6], with Candida albicans [7], in the data set with Candida albicans [8], in the data set on Candida albicans [9], with Candida albicans [10] and with Candida albicans [11] was Active. The outcome in the data set on Candida albicans [12] and in the data set with Candida albicans [13] was Active. Moreover, the logP in [14] came out at 0.62.

Take `C[C@@H]1O[C@@H](OC[C@H]2O[C@@H](Oc3c(-c4ccc(O)c(O)c4)oc4cc(O)cc(O)c4c3=O)[C@H](O)[C@@H](O)[C@@H]2O)[C@H](O)[C@H](O)[C@H]1O` [RUTIN]: the outcome in the data set with Candida albicans [1], in the data set with Candida albicans [2], with Candida albicans [3], in the data set with Candida albicans [4], in the data set with Candida albicans [5] and in the data set on Candida albicans [6] was inactive. The outcome in the data set with Candida albicans [7], with Candida albicans [8], in the data set on Candida albicans [9], with Candida albicans [10] and in the data set on Candida albicans [11] was inactive. The result with Candida albicans [12] and with Candida albicans [13] was Active. Besides, the logP in data set [14] stood at 0.31.
